Reference: patent publication US20250091989A1, “SMALL MOLECULE PROTEIN SYNTHESIS MODULATORS” (Interdict Bio, Inc., priority 2023, published 2025)

Key:
ALK = assay: In vitro transcription-translation (IVTT) reporter assay, ALK test sequence; type: biochemical; conditions: HeLa S3 lysate, sfGFP/mCherry ratio, 2 hrs at 30° C.
Procedure, shortened: (§1)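 Coupled transcription-translation in HeLa S3 lysate with reporter plasmids encoding mCherry-P2A-3×FLAG-TEST-sfGFP behind an EMCV IRES. Compounds were half-log titrated (30 μM-0.1 μM in DMSO dilution plate) into master mix, then DNA was added. Reactions ran 2 hrs at 30° C, were PBS-quenched and read for fluorescence.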

MYC = assay: In vitro transcription-translation (IVTT) reporter assay, MYC test sequence; type: biochemical; conditions: HeLa S3 lysate, sfGFP/mCherry ratio, 2 hrs at 30° C.
Procedure, shortened: as §1

KRAS G12D = assay: In vitro transcription-translation (IVTT) reporter assay, KRAS G12D test sequence; type: biochemical; conditions: HeLa S3 lysate, sfGFP/mCherry ratio, 2 hrs at 30° C.
Procedure, shortened: as §1

CCND1 = assay: In vitro transcription-translation (IVTT) reporter assay, CCND1 test sequence; type: biochemical; conditions: HeLa S3 lysate, sfGFP/mCherry ratio, 2 hrs at 30° C.
Description: (§2) All reporter constructs have been cloned into the pT7CFE1-CHis plasmid (ThermoFisher #88860) using Gibson assembly procedures (NEB #E2611L). The parental pT7CFE1-CHis plasmid contains an EMCV IRES at the 5′UTR for translation initiation, a multiple-cloning site (MCS) for gene insertion, an optional C-terminal His-epitope tag, and polyA sequence in the 3′UTR to regulate mRNA stability. All reporters are designed to be inserted at the MCS to include a red fluorescent protein (mCherry), P2A self-cleaving peptide which releases the preceding mCherry protein product, and a fusion open reading frame containing a 3×FLAG epitope, a peptide sequence of interest (TEST), and green fluorescent protein (sfGFP).
(§3) Construct Plasmid Preparation: All plasmids are isolated from MACH1 cells (ThermoFisher) grown overnight in ampicillin-containing luria broth, and purified using ZymoPure Express Plasmid Midiprep Kit (Zymo Research). Constructs are sequenced verified and diluted to a working concentration of 110 ng/μL.
(§4) HeLa S3 Lysate Preparation: HeLa S3 cell pellets are acquired from Ipracell/Ipratech (Belgium) and shipped as 4 mL frozen cell pellets on dry ice for storage at −80° C. until use. The procedure for lysate preparation is as follows. Prepare 1× Lysis Buffer, cold and stored on ice:
(§5) Each preparation takes 8 cell pellets (4 ml packed volume each, approximately 1.0×10^9 cells per pellet). Thaw cell pellets from −80° C. on ice for 90 mins. Lay pellets horizontally on top of the ice and rotate every 30 mins to ensure even thawing. Once thawed, add 4 mL of cold lysis buffer to each pellet, and using a serological pipet, gently pipet up and down to break up clumps. Incubate resuspended cells in ice for an additional 30 mins (plunged into ice). During 30 min incubation, rinse and RNase-zap (Ambion) glass dounces (use loose pestle “A”), gently dry and place on ice until needed. Prepare RNase-free Eppendorf tubes for spinning and for batch storage. Add batch labels to 1.5-1.7 mL RNase-free microcentrifuge tubes (labeling scheme below). Each batch will have an extra 1.5-1.7 mL RNase-free microcentrifuge tube for 40 μL of lysate, label the top of this tube (labeling scheme below). After 30 min incubation, transfer all 8 mL of cell pellet to dounce. Cell lysis is complete after douncing 100 times. Aliquot cell lysis into 1.5-1.7 mL temporary-microcentrifuge tubes. Place tubes in centrifuge with “fins” out, and spin at 1,200 xg for 5 mins. After the first spin use a 1 mL pipet to resuspend each tube and repeat spin. This acts as an additional lysis step, is more vigorous and increases lysate yield. During second spin get liquid N2 and a fresh conical tube on ice.
(§6) After spin is complete, transfer supernatant (lysate) from microcentrifuge tubes into the 50 mL conical tube and keep on ice. Repeat steps 10-14 for all other cell pellets until completed. Once all cell lysate has been transferred to the 50 mL conical tube pipet to mix so the solution is homogenous. Transfer 1 mL of lysate into batch-labeled microcentrifuge tubes and flash freeze in liquid nitrogen. Be sure to pipet up and down to mix throughout transfer step. Place all tubes in the […] for long-term storage.
(§7) In vitro transcription-translation assay setup: Each assay includes a master mix containing lysate and shared components, a 96-well plate containing compound titrations for testing, a 96-well DNA plate with reporter constructs to be tested, 96-well skirted PCR plates, and 96-well flat-bottom, black, fluorescent assay plates. […]

HEK 293T = assay: Cell viability (CellTiter-Fluor), HEK 293T; type: cell-based; conditions: Homo sapiens, 24-72 hrs
Procedure: (§8) Count and dispense 2,000-10,000 cells per well (100 μL volume) in black 96-well tissue culture microplate and let cells adhere overnight. Add compound dissolved in 100% DMSO to each well as needed and incubate cells in standard culture conditions for 24-72 hrs. Final DMSO concentration in each well should be 0.1-0.5%. At the desired time point, gently aspirate compound containing media and replace with PBS to wash. Repeat wash step for 2 total washes. Remove PBS and add 100 μL CellTiter-Fluor reagent (Promega) reagent to each well. Seal plate and incubate 1 hr at room temperature with orbital shaking. Analyze fluorescence using plate reader to quantify viable cells compared with vehicle (DMSO) control.

HPAF-II = assay: Cell viability (CellTiter-Fluor), HPAF-II; type: cell-based; conditions: Homo sapiens, 24-72 hrs
Procedure: as §8

KLE = assay: Cell viability (CellTiter-Fluor), KLE; type: cell-based; conditions: Homo sapiens, 24-72 hrs
Procedure: as §8

LS411N = assay: Cell viability (CellTiter-Fluor), LS411N; type: cell-based; conditions: Homo sapiens, LS-411N, 24-72 hrs
Procedure: as §8

MCF7 = assay: Cell viability (CellTiter-Fluor), MCF7; type: cell-based; conditions: Homo sapiens, MCF7, 24-72 hrs
Procedure: as §8

NCI-H1915 = assay: Cell viability (CellTiter-Fluor), NCI-H1915; type: cell-based; conditions: NCI-H1915, 24-72 hrs
Procedure: as §8

HCC38 = assay: Cell viability (CellTiter-Fluor), HCC38; type: cell-based; conditions: Homo sapiens, HCC38, 24-72 hrs
Procedure: as §8

KATO-III = assay: Cell viability (CellTiter-Fluor), KATO-III; type: cell-based; conditions: Homo sapiens, 24-72 hrs
Procedure: as §8

MS751 = assay: Cell viability (CellTiter-Fluor), MS751; type: cell-based; conditions: MS751, 24-72 hrs
Procedure: as §8

T47D = assay: Cell viability (CellTiter-Fluor), T47D; type: cell-based; conditions: Homo sapiens, 24-72 hrs
Procedure: as §8

BCL-2 = assay: In vitro transcription-translation (IVTT) reporter assay, BCL-2 test sequence; type: biochemical; conditions: HeLa S3 lysate, sfGFP/mCherry ratio, 2 hrs at 30° C.
Description: as §2, §3, §4, §5, §6, §7

MCL-1 = assay: In vitro transcription-translation (IVTT) reporter assay, MCL-1 test sequence; type: biochemical; conditions: HeLa S3 lysate, sfGFP/mCherry ratio, 2 hrs at 30° C.
Description: as §2, §3, §4, §5, §6, §7

Compound | IC50 (ALK) [µM] | IC50 (MYC) [µM] | IC50 (KRAS G12D) [µM] | IC50 (CCND1) [µM] | IC50 (HEK 293T) [µM] | IC50 (HPAF-II) [µM] | IC50 (KLE) [µM] | IC50 (LS411N) [µM] | IC50 (MCF7) [µM] | IC50 (NCI-H1915) [µM] | IC50 (HCC38) [µM] | IC50 (KATO-III) [µM] | IC50 (MS751) [µM] | IC50 (T47D) [µM] | IC50 (BCL-2) [µM] | IC50 (MCL-1) [µM]
COc1ccc(C[C@H]2NC[C@H](O)[C@H]2OC(=O)Cc2cnc[nH]2)cc1 [V0109, (2R,3S,4S)-4-hydroxy-2-[(4-methoxyphenyl)methyl]pyrrolidin-3-yl 2-(3H-imidazol-4-yl)acetate] | < 10 | < 10 | < 10 | < 10 | < 0.25 | 0.25 to 1 | 0.25 to 1 | 0.25 to 1 | 0.25 to 1 | 0.25 to 1 | – | – | – | – | – | –
COc1ccc(C[C@H]2NC[C@H](O)[C@H]2OC(=O)CC2CC(F)(F)C2)cc1 [V187043, (2R,3S,4S)-4-hydroxy-2-[(4-methoxyphenyl)methyl]pyrrolidin-3-yl 2-(3,3-difluorocyclobutyl)acetate; trifluoroacetic acid] | < 10 | < 10 | < 10 | – | < 0.25 | 0.25 to 1 | < 0.25 | < 0.25 | < 0.25 | 0.25 to 1 | < 0.25 | 0.25 to 1 | < 0.25 | < 0.25 | – | –
COc1ccc(C[C@H]2NC[C@H](O)[C@H]2OC(=O)Cc2cscn2)cc1 [V187049] | < 10 | < 10 | < 10 | < 10 | < 0.25 | < 0.25 | < 0.25 | < 0.25 | < 0.25 | < 0.25 | < 0.25 | < 0.25 | < 0.25 | < 0.25 | – | –
COc1ccc(CC2NCC(O)C2OC(=O)CC2CC2(F)F)cc1 [V187061, 2R,3S,4S)-4-hydroxy-2-[(4-methoxyphenyl)methyl]pyrrolidin-3-yl 2-(2,2-difluorocyclopropyl)acetate] | < 10 | < 10 | < 10 | – | < 0.25 | 0.25 to 1 | 0.25 to 1 | < 0.25 | 0.25 to 1 | 0.25 to 1 | 0.25 to 1 | 1 to 4 | < 0.25 | 0.25 to 1 | – | –
COc1ccc(C[C@H]2NC[C@H](O)[C@H]2OC(C)=O)cc1Br [V187263] | – | > 30 | – | 20 to 30 | – | – | – | – | – | – | – | – | – | – | 20 to 30 | 20 to 30
CC(=O)O[C@@H]1[C@@H](O)CN[C@@H]1Cc1ccc(-c2cn(C)nn2)cc1 [V187748] | – | < 10 | – | < 10 | – | – | – | – | – | – | – | – | – | – | < 10 | < 10
CC(=O)O[C@@H]1[C@@H](O)CN[C@@H]1Cc1ccc(-c2cn(-c3cccnc3)nn2)cc1 [V187751] | – | < 10 | – | < 10 | – | – | – | – | – | – | – | – | – | – | < 10 | < 10
CC(=O)O[C@@H]1[C@@H](O)CN[C@@H]1Cc1ccc(-c2cn(C3CCOCC3)nn2)cc1 [V187838] | – | < 10 | – | < 10 | – | – | – | – | – | – | – | – | – | – | < 10 | < 10
CC(=O)O[C@@H]1[C@@H](O)CN[C@@H]1Cc1ccc(-c2cn(-c3ccc(Cl)cc3)nn2)cc1 [V187839] | – | < 10 | – | < 10 | – | – | – | – | – | – | – | – | – | – | < 10 | < 10
CC(=O)O[C@@H]1[C@@H](O)CN[C@@H]1Cc1ccc(-c2cn(-c3ccc(C(F)(F)F)cc3)nn2)cc1 [V187840] | – | < 10 | – | < 10 | – | – | – | – | – | – | – | – | – | – | < 10 | < 10
CC(=O)O[C@@H]1[C@@H](O)CN[C@@H]1Cc1ccc(-c2cn(Cc3cn[nH]c3)nn2)cc1 [V187844] | – | < 10 | – | < 10 | – | – | – | – | – | – | – | – | – | – | < 10 | < 10
CC(=O)O[C@@H]1[C@@H](O)CN[C@@H]1Cc1ccc(-c2nn[nH]c2Cl)cc1 [V187854] | – | < 10 | – | < 10 | – | – | – | – | – | – | – | – | – | – | < 10 | < 10
CC(=O)O[C@@H]1[C@@H](O)CN[C@@H]1Cc1ccc(-c2nnn(C)c2Cl)cc1 [V187855] | – | < 10 | – | < 10 | – | – | – | – | – | – | – | – | – | – | < 10 | < 10
CC(=O)O[C@@H]1[C@@H](O)CN[C@@H]1Cc1ccc(-c2nnn(Cc3ccccc3)c2Cl)cc1 [V187856] | – | < 10 | – | < 10 | – | – | – | – | – | – | – | – | – | – | < 10 | < 10
COc1ccc(C[C@H]2NC[C@H](O)[C@H]2OC(C)=O)cc1I [V188005] | – | > 30 | – | > 30 | – | – | – | – | – | – | – | – | – | – | > 30 | > 30
